Results as given in patent publication US9815794B2, “Inhibition of bacterial biofilms and microbial growth with imidazole derivatives” (North Carolina State University, priority 2011, dated 2017).
Converted amounts (≈) assume the structure as drawn.

Experiments:
Format in all cases: cell-based
MDRAB [1] = assay: Broth microdilution MIC
Procedure: (§1) Once it was determined that this specific 4,5-disubstitution pattern imparted microbicidal activity onto the 2-AI framework, this activity was quantified by measuring the MIC of each derivative against a variety of representative pathogenic bacterial strains using the microdilution protocol (CSLI, Performance Standards for Antimicrobial Suceptibility Testing; Nineteenth Informational Supplement, Clinical and Laboratory Standards Institute, Wayne, Pa., 2009). E. coli, MDRAB, P. aeruginosa, MRSA, MSSA, S. epidermidis and VRE were used for initial evaluation. From this screen, compound 15 was determined to be the lead compound and had MIC values (μg/mL) of 2, 2, 1, 0.5, 0.25, and 1 against E. coli, MDRAB, MRSA, VRE, S. Epidermidis and MSSA.
(§2) S. aureus (ATCC #29213), S. epidermidis (ATCC #29886), MRSA (ATCC # BAA-44), MDRAB (ATCC # BAA-1605), vancomycin resistant Enterococcus faecium (VRE) (ATCC #51559) and E. coli (ATCC #35695) were obtained from the ATCC. Mechanically difibrinated sheep blood (DSB100) was obtained from Hemostat Labs. Mueller-Hinton medium was purchased from Fluka (#70192).
(§3) Broth Microdilution Method for MIC Determination.

E. coli [2] = assay: Broth microdilution MIC; conditions: Escherichia coli
Procedure: as §1, §2, §3

E. coli [3] = assay: Biofilm formation inhibition, crystal violet reporter assay; conditions: Escherichia coli
Procedure: (§4) The ability of each member of the pilot library to inhibit either E. coli or MDRAB biofilm formation at 100 μM was assessed using a crystal violet reporter assay (O'Toole et al., Mol. Microbiol., 1998, 30: 295-304).
(§5) This is typically indicative of biofilm inhibition via a traditional microbicidal mechanism instead of a mechanism that modulates biofilm formation through non-microbicidal mechanisms. […] At this concentration, a 97% reduction in bacterial growth was observed.

E. coli [4] = assay: Growth curve analysis (A600); conditions: at IC50 concentration (13 μM)
Text: as §5

MDRAB [5] = assay: Biofilm formation inhibition, crystal violet reporter assay
Procedure: as §4

Structure (SMILES)	MIC (MDRAB [1]) [µg/mL]	MIC (E. coli [2]) [µg/mL]	inhibition at 100 µM (E. coli [3]; 100 μM) [%]	IC50 (E. coli [3]; dose-response) [µM]	reduction in bacterial growth (E. coli [4]) [%]	inhibition at 100 µM (MDRAB [5]) [%]
CCCCCCc1[nH]c(N)nc1CCCCCc1ccccc1 [Compound 19, 5-hexyl-4-(5-phenylpentyl)-1H-imidazol-2-amine]	4 (≈ 12.8 µM)	2 (≈ 6.38 µM)				
CCCCCc1[nH]c(N)nc1CCCCCc1ccccc1 [Compound 15, 5-pentyl-4-(5-phenylpentyl)-1H-imidazol-2-amine]	2 (≈ 6.68 µM)	2 (≈ 6.68 µM)	83 ± 0.8	13	97	80.3 ± 8.1
